Read-outs that look alike come from different tables or passages of the source. Where no end group is shown, it is not given here.
Tests used:
[1] = test system: Luciferase expressing A7r5 cells; experiment: Luciferase gene-silencing assay; assay type: cell-based, rat; settings: sequentially delivered 25 nM siRNA as peptide-siRNA polyplexes
Experimental: Luciferase expressing A7r5 cells were seeded in a black, clear bottom 96-well plate at a density of 10,000 cells/well in DMEM containing 10% FBS and 1% P/S and allowed to adhere overnight. D-DPB NPs, PepFect-siRNA polyplexes, and CADY-siRNA polyplexes were formulated and loaded with luciferase or scrambled siRNA as noted above. […] Luciferase gene silencing was calculated compared with cells treated with an equivalent dose of scrambled siRNA loaded into D-DPB NPs as a control.

[2] = test system: HCAVSMCs, HMVECs, RAW 264.7, MCF7, and HEK 293T cells; experiment: Polymer dose-dependent YARA-MK2i uptake in five cell types; settings: co-delivery with 2–5 µM PPAA; all five cell lines; flow cytometry
Experimental: (§1) Cells were treated as defined in the following sections in Opti-MEM medium supplemented with 1% penicillin-streptomycin and 1% FBS. For all flow cytometry assays, following treatment or post-treatment incubation, cells were washed 2× in PBS without calcium or magnesium, harvested with 0.05% trypsin-EDTA, centrifuged, resuspended in 300 µL of 0.05% Trypan blue in PBS without calcium or magnesium, and transferred to a 96-well plate for analysis on an EMD Millipore Guava easyCyte™ 5HT flow cytometer with InCyte software for data acquisition. […] All samples were run in triplicate. All flow cytometric uptake data are presented as fold increase in peptide, vivo-morpholino, or nanoparticle uptake relative to treatment with an equivalent dose of the corresponding fluorescently labeled peptide, vivo-morpholino, or nanoparticle formulation alone. Absolute fluorescence data of peptide uptake is shown in the supplement (Supplementary Figs. 4 and 7).
(§2) Cells were then treated with each formulation for 30 min.

[3] = test system: HCAVSMCs; experiment: Inhibitor uptake studies; assay type: cell-based, human; settings: for inhibition at 100 µM / inhibition at 0.1 µM: Homo sapiens; for effect of inhibitor during PPAA pretreatment only on subsequent YARA-MK2i peptide uptake: no inhibitor present during peptide treatment
[4] = test system: human coronary artery vascular smooth muscle cells (HCAVSMCs); experiment: Flow cytometric uptake and retention of fluorescently labeled peptide; settings: 5 µM Alexa-488 labeled peptide, mass ratios 3:1 to 1:20 peptide:polymer, 30 min, flow cytometry
Experimental: as §1, §2
Cell culture medium containing the polymer treatment was then aspirated, and cells were subsequently treated with fluorescent peptide or vivo-morpholino alone for 30 min.
HCAVSMCs were seeded and treated for 30 min as noted above.

[5] = test system: HEK 293-T LgBiT cells; experiment: NanoLuc luciferase intracellular bioavailability assay; assay type: cell-based, human; settings: sequential delivery of 5 µM PPAA followed by 0.5 or 1 µM YARA-HiBiT, 30 min each; 6 h incubation
Experimental: HEK 293-T LgBiT cells were seeded into a collagen-coated 96-well plate in DMEM with 10% FBS and 1% P/S and allowed to incubate for 24 h. […] The treatment was then removed and cells were incubated in 10% FBS media for 6 h. Prior to reading, the TECAN Infinite M1000 Pro plate reader was warmed to 37 °C. The cells were treated with 1 μM DrkBiT for 2 min, after which the NanoLuc substrate was added. The plate was immediately read on the plate reader in a kinetic luminescence cycle for 20 min. Peak luminescence data points were calculated by taking the average of the five readings at the peak of the kinetic curve.

[6] = test system: HMVECs; experiment: Vivo-morpholino colocalization with LysoTracker Red; assay type: cell-based, human; settings: delivery with either 2.5 or 5 µM PPAA, 5 µM vivo-morpholino
Experimental: HMVECs were seeded into Lab-Tek II 8-well chambered coverslips at a density of 10,000 cells/well and incubated overnight. […] Lysotracker staining, imaging of cells, and image processing was carried out as noted above in the peptide endosomal escape experiment.

[7] = read-out: inhibition of YARA-MK2i peptide uptake, co-delivery with 5 µM PPAA, inhibitor (100 nM wortmannin, 100 µM dynasore) 30 min pretreatment and throughout treatment
[8] = read-out: inhibition of YARA-MK2i peptide uptake, sequential delivery, 5 µM PPAA then peptide, inhibitor (100 nM wortmannin, 100 µM dynasore) 30 min pretreatment and throughout treatment

In the case of “Ac-GLWRALWRLLRSLWRLLWRA-cya (Ac-GLWRALWRLLRSLWRLLWRA-cysteamide) [CADY, secondary amphipathic CPP, nucleic acid delivery vector]”, the “effect of PPAA pretreatment on gene-silencing activity of siRNA polyplexes” value [1] was “enhanced the gene-silencing activity”.

In the case of YARAAARQARAKALARQLGVAA [YARA-MK2i], the “fold increase in uptake of the YARA-MK2i peptide” value [2] was 10–30 fold.

In the case of `O=C(N/N=C/c1ccc(O)c(O)c1)c1cc2ccccc2cc1O` [dynasore, Dynasore], the “effect on uptake of fluorescent PPAA polymer (without peptide)” value ([3]; 0-200 µM dynasore, 30 min pretreatment, rhodamine labeled PPAA) was “dose-dependently inhibited internalization”, the inhibition at 100 µM [3, 7] was ~30% and the inhibition at 100 µM [3, 8] was ~44%. The “effect of inhibitor during PPAA pretreatment only on subsequent YARA-MK2i peptide uptake” value [3] was “dose-dependent increase in subsequent YARA-MK2i peptide internalization”.

“Stearyl-AGYLLGKLLOOLAAAALOOLL [PepFect, stearylated, secondary amphipathic CPP, nucleic acid delivery vector]” was tested, and the “effect of PPAA pretreatment on gene-silencing activity of siRNA polyplexes” value [1] was “enhanced the gene-silencing activity”.

In the case of “RQIKIWFQNRRMKWKKKALARQLGVAA [Penetratin-MK2i]”, the “effect of co-delivery with PPAA (pre-complexed NPs) on peptide uptake” value (shortened to “effect of co-delivery with PPAA”) [4] was “did not display significant PPAA-mediated enhancement of uptake with co-delivery”.

With “YARAAARQARA-HiBiT [YARA-HiBiT, YARA CPP fused to the HiBiT peptide of the NanoLuc platform]” the “intracellular delivery (NanoLuc luminescence)” value [5] was “significantly enhanced intracellular delivery”.

RRRRRRKALARQLGVAA [R6-MK2i] was tested, and the “effect of co-delivery with PPAA” value [4] was “consistently increased peptide uptake”.

In the case of Methyl-β-cyclodextrin, the “effect of inhibitor during PPAA pretreatment only on subsequent YARA-MK2i peptide uptake” value [3] was “Neither methyl-β-cyclodextrin nor dextran sulfate addition during PPAA pretreatment had any effects on subsequent peptide uptake”.

In the case of YARAAARQARA-KLRKVSpK [YARA-VASP], the “effect of co-delivery with PPAA” value [4] was “Very similar trends in PPAA dose-dependent uptake”.

For “CD47 vivo-morpholino: phosphorodiamidite morpholino oligomer conjugated to a cationic octa-guanidine dendrimer; 5′-CGTCACAGGCAGGACCCACTGCCCA (all phosphorodiamidate morpholino (PMO); octa-guanidine dendrimer conjugated, position not given here, further chemistry not fully specified)”, the “colocalization with the endolysosomal dye LysoTracker Red” value [6] was “significantly reduced CD47 vivo-morpholino colocalization”.

In the case of Dextran sulfate, the “effect of inhibitor during PPAA pretreatment only on subsequent YARA-MK2i peptide uptake” value [3] was “Neither methyl-β-cyclodextrin nor dextran sulfate addition during PPAA pretreatment had any effects on subsequent peptide uptake”.

For GRKKRRQRRRPPQKALARQLGVAA [TAT-MK2i], the “effect of co-delivery with PPAA” value [4] was “consistently increased peptide uptake”.

With `COC[C@H]1OC(=O)c2coc3c2[C@@]1(C)C1=C(C3=O)[C@@H]2CCC(=O)[C@@]2(C)C[C@H]1OC(C)=O` [wortmannin, Wortmannin] the inhibition at 0.1 µM [3, 7] was ~69%, the inhibition at 0.1 µM [3, 8] was ~89% and the “effect of inhibitor during PPAA pretreatment only on subsequent YARA-MK2i peptide uptake” value [3] was “significantly reduced subsequent peptide uptake”.

In the case of KLRKVSpK [VASP (no CPP)], the “effect of co-delivery with PPAA” value [4] was “no polymer effect on uptake”.
